Results as given in patent US12538924B2, “Pesticidally active heterocyclic derivatives with sulfur containing substituents” (SYNGENTA CROP PROTECTION AG, priority 2019, dated 2026).

Legend:
Type in all cases: in vivo
[1] = test system: Diabrotica Balteata (Corn Root Worm); experiment: Diabrotica balteata (Corn Root Worm), sprayed maize sprouts; conditions: 96 h, application rate of 200 ppm, L2 larvae on sprayed maize sprouts, 4 days after infestation, read-out: effect in at least one of the two categories (mortality or growth inhibition)
Protocol: Example B2: Diabrotica Balteata (Corn Root Worm)
Maize sprouts placed onto an agar layer in 24-well microtiter plates were treated with aqueous test solutions prepared from 10'000 ppm DMSO stock solutions by spraying. After drying, the plates were infested with L2 larvae (6 to 10 per well). The samples were assessed for mortality and growth inhibition in comparison to untreated samples 4 days after infestation.

[2] = test system: Euschistus heros (Neotropical Brown Stink Bug); experiment: Euschistus heros (Neotropical Brown Stink Bug), sprayed soybean leaves; conditions: 120 h, application rate of 200 ppm, N2 nymphs on sprayed soybean leaves, 5 days after infestation, read-out: effect in at least one of the two categories (mortality or growth inhibition)
Protocol: Example B3: Euschistus heros (Neotropical Brown Stink Bug)
Soybean leaves on agar in 24-well microtiter plates were sprayed with aqueous test solutions prepared from 10'000 ppm DMSO stock solutions. After drying the leaves were infested with N2 nymphs. The samples were assessed for mortality and growth inhibition in comparison to untreated samples 5 days after infestation.

[3] = test system: Plutella xylostella (Diamond Back Moth); experiment: Plutella xylostella (Diamond Back Moth), treated artificial diet; conditions: 192 h, application rate of 200 ppm, eggs on treated artificial diet, 8 days after infestation, read-out: effect in at least one of the two categories (mortality or growth inhibition)
Protocol: Example B5: Plutella xylostella (Diamond Back Moth)
24-well microtiter plates with artificial diet were treated with aqueous test solutions prepared from 10'000 ppm DMSO stock solutions by pipetting. After drying, Plutella eggs were pipetted through a plastic stencil onto a gel blotting paper and the plate was closed with it. The samples were assessed for mortality and growth inhibition in comparison to untreated samples 8 days after infestation.

[4] = test system: Myzus persicae (Green Peach Aphid); experiment: Myzus persicae (Green Peach Aphid): Feeding/Contact Activity; conditions: foliar, 144 h, application rate of 200 ppm, aphid population of mixed ages on sprayed sunflower leaf discs, 6 days after infestation
Protocol: Example B6: Myzus persicae (Green Peach Aphid): Feeding/Contact Activity
Sunflower leaf discs were placed onto agar in a 24-well microtiter plate and sprayed with aqueous test solutions prepared from 10'000 ppm DMSO stock solutions. After drying, the leaf discs were infested with an aphid population of mixed ages. The samples were assessed for mortality 6 days after infestation.

[5] = test system: Myzus persicae (Green Peach Aphid); experiment: Myzus persicae (Green Peach Aphid): Systemic Activity; conditions: 144 h, test rate of 24 ppm, roots of infested pea seedlings placed into test solutions, 6 days
Protocol: Example B7: Myzus persicae (Green Peach Aphid): Systemic Activity
Roots of pea seedlings infested with an aphid population of mixed ages were placed directly into aqueous test solutions prepared from 10'000 DMSO stock solutions. The samples were assessed for mortality 6 days after placing seedlings into test solutions.

[6] = test system: Spodoptera littoralis (Egyptian Cotton Leaf Worm); experiment: Spodoptera littoralis (Egyptian Cotton Leaf Worm), sprayed cotton leaf discs; conditions: foliar, 72 h, application rate of 200 ppm, L1 larvae on sprayed cotton leaf discs, 3 days after infestation, read-out: control (mortality, anti-feeding effect or growth inhibition)
Protocol: Example B8: Spodoptera littoralis (Egyptian Cotton Leaf Worm)
Cotton leaf discs were placed onto agar in 24-well microtiter plates and sprayed with aqueous test solutions prepared from 10'000 ppm DMSO stock solutions. After drying the leaf discs were infested with five L1 larvae. The samples were assessed for mortality, anti-feeding effect, and growth inhibition in comparison to untreated samples 3 days after infestation. Control of Spodoptera littoralis by a test sample is given when at least one of the categories mortality, anti-feedant effect, and growth inhibition is higher than the untreated sample.

[7] = test system: Nilaparvata lugens (Brown Plant Hopper); experiment: Nilaparvata lugens (Brown Plant Hopper): Larvicide, Systemic into Water; conditions: 168 h, test rate of 12.5 ppm, rice plants in nutritive solution, N3 nymphs, 7 days after infestation
Protocol: Example B12: Nilaparvata lugens (Brown Plant Hopper): Larvicide, Systemic into Water
Rice plants cultivated in a nutritive solution were treated with the diluted test solutions into nourishing cultivation system. 1 day after application plants were infested with ˜20 N3 nymphs. 7 days after infestation samples were assessed for mortality and growth regulation.

[8] = test system: Bemisia tabaci (Cotton White Fly); experiment: Bemisia tabaci (Cotton White Fly): Feeding/Contact Activity; conditions: foliar, 144 h, application rate of 200 ppm, adult white flies on sprayed cotton leaf discs, 6 days after incubation
Protocol: Example B1: Bemisia tabaci (Cotton White Fly): Feeding/Contact Activity
Cotton leaf discs were placed on agar in 24-well microtiter plates and sprayed with aqueous test solutions prepared from 10'000 ppm DMSO stock solutions. After drying the leaf discs were infested with adult white flies. The samples were checked for mortality 6 days after incubation.

[9] = test system: Nilaparvata lugens (Brown Plant Hopper); experiment: Nilaparvata lugens (Brown Plant Hopper): Larvicide, Feeding/Contact; conditions: 168 h, application rate of 50 ppm, N3 nymphs on sprayed rice plants, 7 days after the treatment
Protocol: Example B10: Nilaparvata lugens (Brown Plant Hopper): Larvicide, Feeding/Contact
Rice plants were treated with the diluted test solutions in a spray chamber. After drying plants were infested with ˜20 N3 nymphs. 7 days after the treatment samples were assessed for mortality and growth regulation.

[10] = test system: Nilaparvata lugens (Brown Plant Hopper); experiment: Nilaparvata lugens (Brown Plant Hopper): Igr, Feeding/Contact; conditions: 360 h, application rate of 50 ppm, sprayed rice plants, N3 nymphs, assessed for effect on F1 generation 15 days after the treatment
Protocol: Example B11: Nilaparvata lugens (Brown Plant Hopper): Igr, Feeding/Contact
Rice plants were treated with the diluted test solutions in a spray chamber. After drying plants were infested with ˜20 N3 nymphs. 7 days after treatment adults were removed and 15 days after the treatment samples were assessed for effect on F1 generation.

CCS(=O)(=O)c1cccnc1N1Cc2cnc(C(F)(F)F)cc2C1=O [Compound P1, 2-(3-ethylsulfonyl-2-pyridyl)-6-(trifluoromethyl)-3H-pyrrolo[3,4-c]pyridin-1-one]
≥ 80%: percent effect (mortality or growth inhibition) at 200 ppm [1] | percent effect (mortality or growth inhibition) at 200 ppm [2] | percent effect (mortality or growth inhibition) at 200 ppm [3] | mortality at 200 ppm [4] | mortality at 24 ppm [5] | percent control (mortality, anti-feedant effect or growth inhibition) at 200 ppm [6] | mortality at 12.5 ppm [7]

CCS(=O)(=O)c1cc(C(C)(C)C#N)cnc1N1Cc2cnc(C(F)(F)F)cc2C1=O [Compound P2, 2-[5-ethylsulfonyl-6-[1-oxo-6-(trifluoromethyl)-3H-pyrrolo[3,4-c]pyridin-2-yl]-3-pyridyl]-2-methyl-propanenitrile]
≥ 80%: mortality at 200 ppm [8] | percent effect (mortality or growth inhibition) at 200 ppm [1] | percent effect (mortality or growth inhibition) at 200 ppm [2] | percent effect (mortality or growth inhibition) at 200 ppm [3] | mortality at 200 ppm [4] | mortality at 24 ppm [5] | percent control (mortality, anti-feedant effect or growth inhibition) at 200 ppm [6] | mortality at 50 ppm [9] | mortality at 50 ppm [10] | mortality at 12.5 ppm [7]

CCS(=O)(=O)c1ccc(NC)nc1N1Cc2cnc(C(F)(F)F)cc2C1=O [Compound P4, 2-[3-ethylsulfonyl-6-(methylamino)-2-pyridyl]-6-(trifluoromethyl)-3H-pyrrolo[3,4-c]pyridin-1-one]
≥ 80%: percent effect (mortality or growth inhibition) at 200 ppm [1] | percent effect (mortality or growth inhibition) at 200 ppm [2] | percent effect (mortality or growth inhibition) at 200 ppm [3] | mortality at 200 ppm [4] | mortality at 24 ppm [5] | percent control (mortality, anti-feedant effect or growth inhibition) at 200 ppm [6] | mortality at 50 ppm [9] | mortality at 50 ppm [10] | mortality at 12.5 ppm [7]

CCS(=O)(=O)c1ccc(-n2cncn2)nc1N1Cc2cnc(C(F)(F)F)cc2C1=O [Compound P5, 2-[3-ethylsulfonyl-6-(1,2,4-triazol-1-yl)-2-pyridyl]-6-(trifluoromethyl)-3H-pyrrolo[3,4-c]pyridin-1-one]
≥ 80%: mortality at 200 ppm [8] | percent effect (mortality or growth inhibition) at 200 ppm [1] | percent effect (mortality or growth inhibition) at 200 ppm [2] | percent effect (mortality or growth inhibition) at 200 ppm [3] | mortality at 200 ppm [4] | mortality at 24 ppm [5] | percent control (mortality, anti-feedant effect or growth inhibition) at 200 ppm [6] | mortality at 50 ppm [9] | mortality at 50 ppm [10] | mortality at 12.5 ppm [7]

CCS(=O)(=O)c1ccc(N(C)C(=O)NC)nc1N1Cc2cnc(C(F)(F)F)cc2C1=O [Compound P6, 1-[5-ethylsulfonyl-6-[1-oxo-6-(trifluoromethyl)-3H-pyrrolo[3,4-c]pyridin-2-yl]-2-pyridyl]-1,3-dimethyl-urea]
≥ 80%: mortality at 200 ppm [8] | percent effect (mortality or growth inhibition) at 200 ppm [1] | percent effect (mortality or growth inhibition) at 200 ppm [2] | percent effect (mortality or growth inhibition) at 200 ppm [3] | mortality at 200 ppm [4] | mortality at 24 ppm [5] | mortality at 50 ppm [9] | mortality at 12.5 ppm [7]

CCS(=O)(=O)c1cc(-n2ccc(C(F)(F)F)n2)cnc1N1Cc2cnc(C(F)(F)F)cc2C1=O [Compound P9, 2-[3-ethylsulfonyl-5-[3-(trifluoromethyl)pyrazol-1-yl]-2-pyridyl]-6-(trifluoromethyl)-3H-pyrrolo[3,4-c]pyridin-1-one]
≥ 80%: mortality at 200 ppm [8] | percent effect (mortality or growth inhibition) at 200 ppm [1] | percent effect (mortality or growth inhibition) at 200 ppm [2] | percent effect (mortality or growth inhibition) at 200 ppm [3] | mortality at 200 ppm [4] | percent control (mortality, anti-feedant effect or growth inhibition) at 200 ppm [6] | mortality at 50 ppm [10] | mortality at 12.5 ppm [7]

CCS(=O)(=O)c1cc(Oc2ccccn2)cnc1N1Cc2cnc(C(F)(F)F)cc2C1=O [Compound P12, 2-[3-ethylsulfonyl-5-(2-pyridyloxy)-2-pyridyl]-6-(trifluoromethyl)-3H-pyrrolo[3,4-c]pyridin-1-one]
≥ 80%: percent effect (mortality or growth inhibition) at 200 ppm [1] | percent effect (mortality or growth inhibition) at 200 ppm [2] | percent effect (mortality or growth inhibition) at 200 ppm [3] | mortality at 200 ppm [4] | mortality at 24 ppm [5] | percent control (mortality, anti-feedant effect or growth inhibition) at 200 ppm [6] | mortality at 12.5 ppm [7]

CCS(=O)(=O)c1cc(-n2ccc(Cl)n2)cnc1N1Cc2cnc(C(F)(F)F)cc2C1=O [Compound P13, 2-[5-(3-chloropyrazol-1-yl)-3-ethylsulfonyl-2-pyridyl]-6-(trifluoromethyl)-3H-pyrrolo[3,4-c]pyridin-1-one]
≥ 80%: mortality at 200 ppm [8] | percent effect (mortality or growth inhibition) at 200 ppm [1] | percent effect (mortality or growth inhibition) at 200 ppm [2] | percent effect (mortality or growth inhibition) at 200 ppm [3] | mortality at 200 ppm [4] | percent control (mortality, anti-feedant effect or growth inhibition) at 200 ppm [6] | mortality at 12.5 ppm [7]

CCS(=O)(=O)c1cccnc1N1Cc2ccc(S(=O)(=O)C(F)(F)F)cc2C1=O [Compound P23, 2-(3-ethylsulfonyl-2-pyridyl)-6-(trifluoromethylsulfonyl)isoindolin-1-one]
≥ 80%: mortality at 200 ppm [8] | percent effect (mortality or growth inhibition) at 200 ppm [1] | percent effect (mortality or growth inhibition) at 200 ppm [2] | percent effect (mortality or growth inhibition) at 200 ppm [3] | mortality at 200 ppm [4] | mortality at 24 ppm [5] | percent control (mortality, anti-feedant effect or growth inhibition) at 200 ppm [6]
